These results are taken from BindingDB's records for doi:10.1021/jm801583j (Bristol-Myers Squibb, 2009).

Each structure is given as a SMILES string.

As usually defined, the EC50 is the concentration that produces a half-maximal response. Read a low EC50 as higher potency in that assay. What is called Ki is the equilibrium dissociation constant of an inhibitor or competing ligand from its target.

This assay deals with T1, Androgen receptor (Homo sapiens, UniProt P10275).
T1 sequence (P10275 whole entry): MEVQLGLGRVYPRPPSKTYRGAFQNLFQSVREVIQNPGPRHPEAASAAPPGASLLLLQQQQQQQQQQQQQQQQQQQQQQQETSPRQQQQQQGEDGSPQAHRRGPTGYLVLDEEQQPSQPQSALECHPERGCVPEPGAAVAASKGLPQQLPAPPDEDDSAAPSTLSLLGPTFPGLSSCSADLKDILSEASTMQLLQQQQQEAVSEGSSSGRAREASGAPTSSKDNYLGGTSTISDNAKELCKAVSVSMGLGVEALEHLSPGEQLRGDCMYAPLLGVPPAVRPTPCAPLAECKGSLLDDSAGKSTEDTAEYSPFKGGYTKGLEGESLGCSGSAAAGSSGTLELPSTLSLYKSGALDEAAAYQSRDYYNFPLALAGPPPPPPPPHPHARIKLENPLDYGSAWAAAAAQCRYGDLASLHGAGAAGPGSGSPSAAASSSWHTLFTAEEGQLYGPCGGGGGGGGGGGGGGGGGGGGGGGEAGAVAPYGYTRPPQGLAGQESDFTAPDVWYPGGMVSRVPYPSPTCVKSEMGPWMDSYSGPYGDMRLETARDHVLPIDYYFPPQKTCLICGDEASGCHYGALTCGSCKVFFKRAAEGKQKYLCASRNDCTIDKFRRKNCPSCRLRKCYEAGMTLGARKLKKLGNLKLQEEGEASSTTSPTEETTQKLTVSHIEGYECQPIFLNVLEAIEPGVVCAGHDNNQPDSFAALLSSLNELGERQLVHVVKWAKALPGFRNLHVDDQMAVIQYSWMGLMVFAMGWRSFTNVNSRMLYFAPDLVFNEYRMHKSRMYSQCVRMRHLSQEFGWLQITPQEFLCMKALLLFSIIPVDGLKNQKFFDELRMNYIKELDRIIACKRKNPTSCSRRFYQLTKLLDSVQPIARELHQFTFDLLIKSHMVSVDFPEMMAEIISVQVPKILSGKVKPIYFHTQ
Put plainly: Receptor Binding Assay (Ki) and Transactivation Assay (EC50). The conditions noted are these: pH 7.6; 22 °C.

Procedure: Binding assays were conducted by incubating test compound at various concentrations with [3H]DHT with human cancer epithelial breast cell lines MDAMB-45. IC50 value was obtained from dose-response displacement curves. The inhibition constant (Ki) was calculated from IC50 value by the Cheng and Prusoff equation. EC50 value was obtained from functional transactivation assay, which was conducted to assess the potency and efficacy of agonist/antagonist in stably transfected mouse myoblast C2C12 cell line utilizing a luciferase reporter.

`Cc1c(N2/C(=N/C#N)N3CC[C@H](O)[C@H]3[C@@H]2C)ccc(C#N)c1Cl` [cyanoguanidine, 15] showed an EC50 of 1110 nM and a Ki of 17 nM.

Take `Cc1c(/N=C2\O[C@H](C(C)C)[C@@H]3[C@H](O)CCN23)ccc(C#N)c1Cl` [oxazolidin-2-imine, 6g]: the midpoint of the response, the EC50, lay at 3.7 nM and affinity was put at a Ki of 0.7 nM.
